What all share (format): in vitro ADME
The target in one series is T1, CYP2C8 (Homo sapiens, UniProt P10632).
T1 construct: tissue Corning Life Sciences; host or cells: pooled human liver microsomes (150 donors)
T1 sequence (P10632 1-490): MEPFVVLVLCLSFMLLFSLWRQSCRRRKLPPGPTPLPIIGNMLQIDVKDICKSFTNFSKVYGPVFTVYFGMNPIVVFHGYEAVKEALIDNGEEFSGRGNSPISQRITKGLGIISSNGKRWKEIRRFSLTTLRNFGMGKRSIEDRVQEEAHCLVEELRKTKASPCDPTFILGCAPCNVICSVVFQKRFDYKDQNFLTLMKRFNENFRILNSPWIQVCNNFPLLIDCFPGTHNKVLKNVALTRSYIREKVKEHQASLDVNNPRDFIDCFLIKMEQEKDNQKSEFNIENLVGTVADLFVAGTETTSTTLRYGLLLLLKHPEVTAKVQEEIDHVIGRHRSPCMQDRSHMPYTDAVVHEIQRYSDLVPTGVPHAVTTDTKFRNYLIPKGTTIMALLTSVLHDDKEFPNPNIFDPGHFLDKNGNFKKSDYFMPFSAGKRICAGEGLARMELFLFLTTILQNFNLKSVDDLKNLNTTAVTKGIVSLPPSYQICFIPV
The experiment in a line: CYP2C8 amodiaquine N-deethylase inhibition and mechanism-based inactivation in human liver microsomes. Conditions: for IC50: Amodiaquine N-deethylase. As to the method: (§1) After a 3-min pre-incubation at 37 °C, the reactions were initiated by addition of NADPH and incubation proceeded for 15 min at 37 °C in a shaking water bath. […] The incubation mixtures were centrifuged (13,000× g, 4 min, 4 °C). All assays were performed in triplicate and mean values were used in calculations.
(§2) Each reaction was initiated by adding the seven-CYP probe substrate cocktail.
The second reaction was terminated after incubation for 10 min by adding 100-µL amounts of ice-cold methanol containing d9-1′-hydroxybufuralol. The incubation mixtures were centrifuged (13,000× g, 4 min, 4 °C), and then 50 µL of each supernatant was diluted with 50 µL of water. Aliquots (5 µL) of the diluted supernatants were analyzed by LC-MS/MS.
The metabolites formed from CYP substrates were quantified simultaneously by a LC-MS/MS method described previously. The ESI source settings in positive-ion mode for metabolite ionization were: capillary voltage, 4200 V; vaporizer temperature, 350 °C; capillary temperature, 330 °C; sheath gas pressure, 35 psi; and auxiliary gas pressure, 15 psi. Quantification was performed by selected reaction monitoring (SRM) of the [M + H]^+ ion and the related product ion for each metabolite: acetaminophen, 152.1 > 110.3; N-desethylamodiaquine, 328.1 > 283.0; 7-hydroxycoumarin, 163.0 > 107.2; 4-hydroxybupropion, 256.1 > 238.0; 4′-hydroxydiclofenac, 312.0 > 231.1; 4′-hydroxy-mephenytoin; 235.1 > 150.1; 1′-hydroxybufuralol, 278.1 > 186.1; 1′-hydroxymidazolam, 341.9 > 324.0; ^13C2,^15N-acetaminophen 155.1 > 111.2; and d9-1′-hydroxybufuralol, 287.2 > 187.0. Analytical data were processed using Xcalibur software (version 2.1, Thermo Scientific).
(§3) The apparent kinetic parameters for inhibitory potential (Ki and kinact values) and inhibition mode were estimated from the fitted curves using the Enzyme Kinetics program (ver. 1.1; Systat Software Inc., San Jose, CA, USA).
In general terms: Liver microsomes are a subcellular fraction often used to study metabolism.

The next series addresses T2, CYP2C19 (Homo sapiens, UniProt P33261).
T2 construct: pooled human liver microsomes (0.2 mg/mL); tissue Corning Life Sciences; host or cells: pooled human liver microsomes (150 donors)
Put plainly: CYP2C19 [S]-mephenytoin 4′-hydroxylase inhibition in human liver microsomes. Conditions: at 50 µM. The procedure: as §1, §2
The metabolites formed from CYP substrates were quantified simultaneously by a LC-MS/MS method described previously. The ESI source settings in positive-ion mode for metabolite ionization were: capillary voltage, 4200 V; vaporizer temperature, 350 °C; capillary temperature, 330 °C; sheath gas pressure, 35 psi; and auxiliary gas pressure, 15 psi. […] Analytical data were processed using Xcalibur software (version 2.1, Thermo Scientific).
as §3

The target of another series is T3, UGT1A3 (Homo sapiens, UniProt P35503).
T3 construct: tissue Corning Life Sciences; host or cells: pooled human liver microsomes (150 donors)
T3 sequence (P35503 29-534): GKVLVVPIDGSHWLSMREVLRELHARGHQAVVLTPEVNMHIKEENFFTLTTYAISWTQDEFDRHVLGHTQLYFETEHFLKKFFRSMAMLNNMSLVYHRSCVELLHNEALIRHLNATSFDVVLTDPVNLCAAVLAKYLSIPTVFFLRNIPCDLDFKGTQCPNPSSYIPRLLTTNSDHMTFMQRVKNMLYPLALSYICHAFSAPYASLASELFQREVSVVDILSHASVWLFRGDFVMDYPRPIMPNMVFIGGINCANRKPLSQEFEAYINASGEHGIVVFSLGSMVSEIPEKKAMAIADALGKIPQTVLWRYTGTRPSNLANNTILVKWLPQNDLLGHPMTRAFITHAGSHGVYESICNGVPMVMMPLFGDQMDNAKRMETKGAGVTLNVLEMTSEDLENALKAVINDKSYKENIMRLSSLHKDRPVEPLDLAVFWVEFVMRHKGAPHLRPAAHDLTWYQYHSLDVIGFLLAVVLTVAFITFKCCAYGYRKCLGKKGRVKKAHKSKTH
Put plainly: UGT1A3 chenodeoxycholic acid 24-acyl-glucuronidation inhibition in human liver microsomes. As to the method:
After 3 min of pre-incubation at 37 °C, the reactions were initiated by addition of UDPGA; incubation continued for 60 min at 37 °C in a shaking water bath. The reaction was stopped by placing the tubes on ice and adding 50 µL ice-cold acetonitrile containing internal standards (propofol glucuronide for chenodeoxycholic acid 24-acyl-β-glucuronide and mycophenolic acid glucuronide, and meloxicam for SN-38 glucuronide, trifluoperazine glucuronide, N-acetylserotonin β-D-glucuronide, and naloxone 3-β-D-glucuronide). The incubation mixtures were centrifuged (13,000× g, 4 min, 4 °C). All assays were performed in triplicate and average values were used in calculations.
The reactions were initiated by addition of UDPGA at 37 °C and stopped after 60 min by placing the incubation tubes on ice and adding 100 μL of ice-cold methanol containing propofol glucuronide (internal standard for UGT1A3) or meloxicam (internal standard for UGT2B7). The incubation mixtures were centrifuged (13,000× g, 4 min, 4 °C), and then, 50 μL of the supernatant was diluted with 50 μL of water. Aliquots (5 μL) of the diluted supernatants were analyzed by LC-MS/MS.
The metabolites formed from the six UGT cocktail substrates were measured simultaneously using the LC-MS/MS method. The ESI source settings in both positive- and negative-ion modes for metabolite ionization were: capillary voltage, 4200 V; vaporizer temperature, 350 °C; capillary temperature, 330 °C; sheath gas pressure, 35 psi; and auxiliary gas pressure, 15 psi. […] Data were processed using Xcalibur software.
as §3

Molecules are shown by their SMILES.

The source of these data is PMC6155437 (Molecules : A Journal of Synthetic Chemistry and Natural …, 2017).

T2 sequence (P33261 whole entry): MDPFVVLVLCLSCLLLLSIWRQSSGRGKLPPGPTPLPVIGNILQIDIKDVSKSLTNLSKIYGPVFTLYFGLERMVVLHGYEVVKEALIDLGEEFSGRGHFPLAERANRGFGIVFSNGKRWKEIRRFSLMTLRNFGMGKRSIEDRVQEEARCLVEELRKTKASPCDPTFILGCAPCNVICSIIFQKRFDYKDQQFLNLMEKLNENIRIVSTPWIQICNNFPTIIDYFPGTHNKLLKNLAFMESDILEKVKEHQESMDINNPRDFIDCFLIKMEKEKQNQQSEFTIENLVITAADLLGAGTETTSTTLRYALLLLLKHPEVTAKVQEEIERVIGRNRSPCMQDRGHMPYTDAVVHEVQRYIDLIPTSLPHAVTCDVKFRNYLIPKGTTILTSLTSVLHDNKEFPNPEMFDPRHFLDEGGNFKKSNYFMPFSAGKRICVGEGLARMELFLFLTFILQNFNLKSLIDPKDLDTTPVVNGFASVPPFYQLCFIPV

As a reminder, the IC50 is the concentration at which inhibition is half-maximal. A low value points to greater potency. Turning to `O=C(c1cccc2ccccc12)c1cn(CCCCCF)c2ccccc12` [AM-2201, 1-(5-fluoropentyl-1H-indol-3-yl)-(naphthalene-1-yl)methanone], the Ki was found to be 2.1 µM at CYP2C8 and 4.3 µM at UGT1A3. The Inhibition Mode result is listed as “mechanism-based inhibitor” at CYP2C8 (CYP2C8 amodiaquine N-deethylation) and “competitively inhibited” at UGT1A3 (UGT1A3 chenodeoxycholic acid 24-acyl-glucuronidation). Moreover, the IC50 against CYP2C8 (IC50 (μM) No Preincubation, CYP2C8, human liver microsomes, 2.5 μM amodiaquine) is 53.8 µM; on CYP2C8 (IC50 (μM) With Preincubation, CYP2C8, 30 min preincubation with NADPH), 6.9 µM; against UGT1A3 (IC50, UGT1A3-catalyzed chenodeoxycholic acid 24-acyl-glucuronidation, abstract), 4.3 µM; on UGT1A3 (IC50, UGT1A3 chenodeoxycholic acid 24-acyl-glucuronidation, 2 μM chenodeoxycholic acid, human liver microsomes), 6.4 µM. On CYP2C19, the “inhibition of CYP2C19-mediated [S]-mephenytoin 4′-hydroxylation” value is reported as “negligibly inhibited”.
